Data published in US10139410B2, “Protein-protein interaction as biomarkers” (H. LEE MOFFITT CANCER CENTER AND RESEARCH INSTITUTE, INC., priority 2011, dated 2018).

How the values were obtained:
EGFR-SHC1 = type: in vivo, mice; details: H1650 (EGFR mutant) or H322 (EGFR wildtype) xenografts, with or without erlotinib, 18 days
Procedure: (§1) Tumor xenografts were established in mice with either H1650 (EGFR mutant) or H322 (EGFR wildtype), treated with or without erlotinib and allowed to grow for 18 days. Formalin-fixed, paraffin-embedded tumor tissue was analyzed by PLA for the interaction of EGFR-GRB2 (left) and EGFR-SHC1 (right). Nuclei are shown in blue, PLA signal is red and cytokeratin is green. For clarity, identical images are shown with and without cytokeratin staining for each tumor.
(§2) Tumor tissues from subcutaneous mouse models of lung cancer will be used. […] Mice have been selected for these experiments since they are most suitable for xenograft and […] studies of lung cancer, are readily available and not endangered, and can be safely maintained in the laboratory animal vivarium. CD-1 nu/nu mice mice will be purchased from approved vendors and housed in institutional animal facilities according to protocols set out by the American Association for Accreditation of Laboratory Animal Care. The inventor currently has active IACUC protocol for establishing subcutaneous tumor xenografts in mice. Both male and female mice of approximately six weeks of age will be used. Mice will be anesthetized in an induction chamber containing 3% isoflurane and 97% oxygen.

EGFR-GRB2 = type: in vivo, mice; details: H1650 (EGFR mutant) or H322 (EGFR wildtype) xenografts, with or without erlotinib, 18 days
Procedure: as §1, §2

phosphor-EGFRY1068 = assay: PLA for phosphorylated EGFR in cell lines (single antibody to phospho-EGFR Y1068); type: cell-based, human; details: PC9 cells, 3 hours of treatment
Procedure: 9. […] Record start time • b. Incubation time should be 16-18 h
11. […] Ensure complete coverage of tissue area.

EGFR = type: cell-based, human
EGFR-GRB2 interactions = test system: EGFR-GRB2 interactions; design: species or system nude mice; details: mouse, in vivo
Procedure: 5. […] Record start time • b. Incubation time should be 16-18 h

lung cancer cell lines = assay: Sensitivity of lung cancer cell lines to EGFR TKI; type: cell-based, human
[1] = test system: EGFR binding of Grb2, Mig6, Sts1; assay: Affinity purification mass spectrometry (AP-MS) of EGFR interactions; type: cell-based, human; details: cells treated with erlotinib; data not shown
From the text: The present inventors have initiated a system wide and global analysis of the PPI driven by hyperactivated epidermal growth factor receptor (EGFR) resulting from somatic mutation in non-small cell lung cancer (NSCLC) (17-19). The inventors' approach has been to combine (i) affinity purification—mass spectrometry (AP-MS) and (ii) phosphotyrosine proteomics. The inventors use cell models that harbor mutant EGFR proteins and are highly sensitive to EGFR TKI. As the network of EGFR is highly dependent on cell context, this approach offers the best chance of recovering pertinent proteins and mechanisms, a potential flaw in using cells other than lung cancer cells driven by mutant EGFR. Tagged versions of EGFR are initially used to identify interactions and second round of AP-MS is performed to more fully construct the network (20, 21). The inventors simultaneously performed tyrosine phosphoproteomics—tyrosine phosphorylated (pTyr) peptides are enriched using an anti-phosphotyrosine antibody and then identified and quantified on an Orbitrap mass spectrometer using published methods (9). […]
EGFR inhibitors are predicted to disrupt signaling complexes on the EGFR protein. […] Changes in EGFR PPI will be determined using PLA on these tumor samples. Measurements of EGFR PPI using PLA will be analyzed from the pre-treatment sample and again on the post-treatment sample.

Compound: C#Cc1cccc(Nc2ncnc3cc(OCCOC)c(OCCOC)cc23)c1 [erlotinib]
- EGFR-SHC1 PLA signal in tumor tissue (EGFR-SHC1): markedly reduced
- EGFR-GRB2 PLA signal in tumor tissue (EGFR-GRB2): markedly reduced
- phosphorylation of EGFR by PLA (pEGFR Y1068), confirmed by immunoblot (phosphor-EGFRY1068): abolishes
- EGFR tyrosine phosphorylation (EGFR): inhibits
- EGFR-GRB2 PLA signal in tumor (EGFR-GRB2 interactions): considerably reduced
- proteins in complex with EGFR (PLA) (EGFR-GRB2 interactions): reductions in proteins in complex with EGFR
- sensitivity to EGFR TKI (erlotinib) (lung cancer cell lines; A549, H23 and H460 cells): resistant
- erlotinib sensitivity (lung cancer cell lines; H322 and H1648 cells): some degree of erlotinib sensitivity
- sensitivity to EGFR TKI (erlotinib) (lung cancer cell lines; H1648, H322, H358 and H292 cells, wildtype EGFR): some degree of sensitivity
- EGFR binding partners by mass spectrometry [1]: no longer bound Grb2, Mig6 or Sts1
